Experimental data as given in the supplement of paper PMC11061612.

Experiments:
[1] = system: TE-10 (Esophageal Squamous Cell Carcinoma); assay: combination Emax (second highest fraction inhibited in the dose matrix, 72 h); higher = more inhibition; extreme values may be limits of the assay
How it was run: (§1)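 Cell lines in DMEM/F12 or RPMI with 10% FBS were plated in 1536-well plates, held 24 hours at 37°C, 5% CO2, then given two-drug dose matrices for 72 hours (DMSO typically 0.2%). Viability was read by CellTiter-Glo 2.0 luminescence and scaled as inhibition from 0 (vehicle wells) to 1 (blank wells). Combination Emax is the second-highest inhibition in the matrix; Bliss excess is observed combination effect minus expected EA + EB − EA·EB, EA and EB being single-agent effects.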

[2] = system: UACC-812 (Breast Carcinoma); assay: Bliss excess, mean over the matrix (fraction); higher = more synergy
How it was run: as §1

COLO-792 (Melanoma) = assay: as above
How it was run: as §1

[3] = system: HCC1395 (Breast Carcinoma); assay: as above
How it was run: as §1

[4] = system: NCI-H1703 (Squamous Cell Lung Carcinoma); assay: as above
How it was run: as §1

[5] = system: NCI-H441 (Lung Adenocarcinoma); assay: as above
How it was run: as §1

[6] = system: TE-10 (Esophageal Squamous Cell Carcinoma); assay: as above
How it was run: as §1

HCC70 (Breast Carcinoma) = assay: as above
How it was run: as §1

[7] = system: HT55 (Colorectal Carcinoma); assay: as above
How it was run: as §1

[8] = system: NCI-H716 (Colorectal Carcinoma); assay: as above
How it was run: as §1

[9] = system: A253 (Head and Neck Carcinoma); assay: as above
How it was run: as §1

[10] = system: GA-10 (Burkitt's Lymphoma); assay: as above
How it was run: as §1
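Throughout, for Bliss excess, mean over the matrix: after 72 h of two-drug dosing.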

Compound | combination Emax [1] | Bliss excess [2] | Bliss excess (COLO-792 (Melanoma)) | Bliss excess [3] | Bliss excess [4] | Bliss excess [5] | Bliss excess [6] | Bliss excess (HCC70 (Breast Carcinoma)) | Bliss excess [7] | Bliss excess [8] | Bliss excess [9] | Bliss excess [10]
Cc1c2c(nn1C)CSCc1cc(n(C)n1)CSc1cc(c3ccccc3c1)OCCCc1c(C(=O)O)n(C)c3c-2c(Cl)ccc13 [AZD5991] + Cc1cc2ncnn2cc1Nc1ncc2c(n1)n(C1CCOCC1)c(=O)n2C [AZD7648] (first compound max 1 µM, 7x7, partner max 10 µM) | 0.855 | -0.0259 | 0.0234 | -0.0497 | 0.0168 | -0.0529 | -0.0057 | -0.052 | -0.0152 | -0.0646 | -0.0286 | -0.0508
COc1cccc(OCCCN)c1-c1cc(Nc2cnc(C#N)cn2)n[nH]1 [Prexasertib] + O=C(c1cc(Cc2n[nH]c(=O)c3ccccc23)ccc1F)N1CCN(C(=O)C2CC2)CC1 [Olaparib] (first compound max 1 µM, 7x7, partner max 10 µM) | 0.892 | -0.0395 | 0.0173 | -0.0368 | -0.0537 | -0.101 | -0.105 | -0.0503 | -0.0102 | -0.0673 | -0.0617 | -0.0649
CC1(C)CCC(CN2CCN(c3ccc(C(=O)NS(=O)(=O)c4ccc(NCC5CCOCC5)c([N+](=O)[O-])c4)c(Oc4cnc5[nH]ccc5c4)c3)CC2)=C(c2ccc(Cl)cc2)C1 [Venetoclax] + Cc1cc2ncnn2cc1Nc1ncc2c(n1)n(C1CCOCC1)c(=O)n2C [AZD7648] (first compound max 1 µM, 7x7, partner max 10 µM) | 0.477 | 0.0286 | -0.0139 | -0.0491 | 0.0396 | -0.0437 | -0.0068 | -0.0423 | -0.0069 | -0.0146 | 0.0072 | -0.0603
CCN(CCO)CCCOc1ccc2c(Nc3cc(CC(=O)Nc4cccc(F)c4)[nH]n3)ncnc2c1 [AZD2811] + O=C(c1cc(Cc2n[nH]c(=O)c3ccccc23)ccc1F)N1CCN(C(=O)C2CC2)CC1 [Olaparib] (first compound max 1 µM, 7x7, partner max 10 µM) | 0.4 | 0.0076 | -0.0187 | -0.0546 | 0.0062 | -0.0417 | 0.0515 | -0.0249 | 0.0248 | 0.0047 | 0.0485 | -0.0469
CCc1c2c(nc3ccc(O)cc13)-c1cc3c(c(=O)n1C2)COC(=O)[C@]3(O)CC [SN-38] + CN(C)CCCOc1ccc(-c2ccc3ncc4c(c3c2)n(C2CCOCC2)c(=O)n4C)cn1 [AZD0156] (first compound max 0.3 µM, 7x7, partner max 1 µM) | 0.725 | 0.034 | -0.011 | -0.0024 | 0.0117 | -0.0052 | 0.0444 | 0.0152 | 0.0776 | 0.0129 | -0.0019 | 0.0494
C[C@@H]1COCCN1c1cc(C2([S@](C)(=N)=O)CC2)nc(-c2ccnc3[nH]ccc23)n1 [AZD6738] + O=C(c1cc(Cc2n[nH]c(=O)c3ccccc23)ccc1F)N1CCN(C(=O)C2CC2)CC1 [Olaparib] (first compound max 10 µM, 7x7, partner max 10 µM) | 0.78 | -0.0422 | 0.0322 | 0.0255 | -0.041 | 0.0124 | -0.0141 | 0.0085 | 0.0204 | -0.0229 | 0.0371 | -0.0726
CN(C)CCCOc1ccc(-c2ccc3ncc4c(c3c2)n(C2CCOCC2)c(=O)n4C)cn1 [AZD0156] + C[C@@H]1COCCN1C2=NC(=NC(=C2)C3(CC3)[S@](=N)(=O)C)C4=C5C=CNC5=NC=C4 [AZD6738] (first compound max 1 µM, 7x7, partner max 10 µM) | 0.814 | -0.0108 | -0.0297 | -0.0245 | -0.0341 | -0.0718 | -0.0075 | -0.0103 | -0.0042 | 0.0459 | 0.0145 | 0.0921
Cc1c2c(nn1C)CSCc1cc(n(C)n1)CSc1cc(c3ccccc3c1)OCCCc1c(C(=O)O)n(C)c3c-2c(Cl)ccc13 [AZD5991] + C[C@@H](Nc1cc(F)cc(F)c1)c1cc(C(=O)N(C)C)cc2c(=O)cc(N3CCOCC3)oc12 [AZD8186] (first compound max 1 µM, 7x7, partner max 3 µM) | 0.891 | 0.0043 | 0.0218 | 0.0527 | -0.0012 | -0.0189 | 0.0078 | 0.0937 | -0.0305 | -0.0335 | -0.0396 | 0.0321
COc1cccc(OCCCN)c1-c1cc(Nc2cnc(C#N)cn2)n[nH]1 [Prexasertib] + Cc1cc2ncnn2cc1Nc1ncc2c(n1)n(C1CCOCC1)c(=O)n2C [AZD7648] (first compound max 1 µM, 7x7, partner max 10 µM) | 0.938 | -0.0402 | 0.0103 | -0.0527 | -0.0192 | 0.0071 | -0.0604 | -0.0053 | -0.0102 | 0.0577 | -0.0228 | -0.0051
CC1(C)CCC(CN2CCN(c3ccc(C(=O)NS(=O)(=O)c4ccc(NCC5CCOCC5)c([N+](=O)[O-])c4)c(Oc4cnc5[nH]ccc5c4)c3)CC2)=C(c2ccc(Cl)cc2)C1 [Venetoclax] + CCN(CCO)CCCOc1ccc2c(Nc3cc(CC(=O)Nc4cccc(F)c4)[nH]n3)ncnc2c1 [AZD2811] (first compound max 1 µM, 7x7, partner max 1 µM) | 0.59 | -0.0283 | -0.0048 | -0.01 | 0.0412 | -0.044 | -0.0502 | -0.0223 | 0.0034 | -0.0813 | 0.046 | 0.0033
Cc1c2c(nn1C)CSCc1cc(n(C)n1)CSc1cc(c3ccccc3c1)OCCCc1c(C(=O)O)n(C)c3c-2c(Cl)ccc13 [AZD5991] + C1CN(CCC1(C(=O)N[C@@H](CCO)C2=CC=C(C=C2)Cl)N)C3=NC=NC4=C3C=CN4 [Capivasertib] (first compound max 1 µM, 7x7, partner max 3 µM) | 0.901 | 0.0196 | 0.0076 | -0.003 | 0.0157 | -0.0023 | 0.0484 | 0.0761 | -0.0129 | 0.0001 | 0.0473 | 0.0138
CC1(C)CCC(CN2CCN(c3ccc(C(=O)NS(=O)(=O)c4ccc(NCC5CCOCC5)c([N+](=O)[O-])c4)c(Oc4cnc5[nH]ccc5c4)c3)CC2)=C(c2ccc(Cl)cc2)C1 [Venetoclax] + C[C@@H]1COCCN1C2=NC(=NC(=C2)C3(CC3)[S@](=N)(=O)C)C4=C5C=CNC5=NC=C4 [AZD6738] (first compound max 1 µM, 7x7, partner max 10 µM) | 0.827 | 0.0003 | 0.03 | -0.0671 | -0.0216 | -0.0483 | -0.0361 | -0.0528 | -0.0511 | -0.0015 | -0.0372 | -0.0281
Cc1c2c(nn1C)CSCc1cc(n(C)n1)CSc1cc(c3ccccc3c1)OCCCc1c(C(=O)O)n(C)c3c-2c(Cl)ccc13 [AZD5991] + CCN(CCO)CCCOc1ccc2c(Nc3cc(CC(=O)Nc4cccc(F)c4)[nH]n3)ncnc2c1 [AZD2811] (first compound max 1 µM, 7x7, partner max 1 µM) | 0.848 | -0.0149 | -0.0095 | 0.0432 | 0.0139 | -0.0142 | -0.0161 | -0.0219 | 0.0472 | -0.0013 | 0.0542 | -0.0092
CC1(C)CCC(CN2CCN(c3ccc(C(=O)NS(=O)(=O)c4ccc(NCC5CCOCC5)c([N+](=O)[O-])c4)c(Oc4cnc5[nH]ccc5c4)c3)CC2)=C(c2ccc(Cl)cc2)C1 [Venetoclax] + C1CN(CCC1(C(=O)N[C@@H](CCO)C2=CC=C(C=C2)Cl)N)C3=NC=NC4=C3C=CN4 [Capivasertib] (first compound max 1 µM, 7x7, partner max 3 µM) | 0.506 | -0.0212 | -0.0203 | -0.0806 | 0.0192 | -0.0707 | -0.04 | -0.0437 | -0.0183 | -0.0595 | -0.0084 | -0.0614
CC(=O)Nc1cccc(-n2c(=O)n(C3CC3)c(=O)c3c(Nc4ccc(I)cc4F)n(C)c(=O)c(C)c32)c1 [Trametinib] + Cc1nc(-c2cn3c(n2)-c2ccc(-c4cnn(C(C)(C)C(N)=O)c4)cc2OCC3)n(C(C)C)n1 [Taselisib] (first compound max 1 µM, 7x7, partner max 10 µM) | 0.965 | 0.0522 | 0.113 | 0.0616 | 0.0652 | 0.102 | 0.127 | 0.149 | -0.0116 | 0.325 | 0.145 | 0.0619
COc1cccc(OCCCN)c1-c1cc(Nc2cnc(C#N)cn2)n[nH]1 [Prexasertib] + C[C@@H]1COCCN1C2=NC(=NC(=C2)C3(CC3)[S@](=N)(=O)C)C4=C5C=CNC5=NC=C4 [AZD6738] (first compound max 1 µM, 7x7, partner max 10 µM) | 0.945 | 0.049 | -0.0376 | -0.0399 | 0.0047 | 0.0009 | -0.0244 | -0.0133 | 0.0367 | -0.0432 | -0.0334 | -0.0023
Cc1c2c(nn1C)CSCc1cc(n(C)n1)CSc1cc(c3ccccc3c1)OCCCc1c(C(=O)O)n(C)c3c-2c(Cl)ccc13 [AZD5991] + C[C@@H]1COCCN1C2=NC(=NC(=C2)C3(CC3)[S@](=N)(=O)C)C4=C5C=CNC5=NC=C4 [AZD6738] (first compound max 1 µM, 7x7, partner max 10 µM) | 0.901 | 0.0094 | 0.0026 | 0.0307 | -0.0108 | 0.0073 | -0.0332 | -0.0069 | 0.0901 | 0.0138 | 0.0364 | -0.018
CC1(C)CCC(CN2CCN(c3ccc(C(=O)NS(=O)(=O)c4ccc(NCC5CCOCC5)c([N+](=O)[O-])c4)c(Oc4cnc5[nH]ccc5c4)c3)CC2)=C(c2ccc(Cl)cc2)C1 [Venetoclax] + C=CCn1c(=O)c2cnc(Nc3ccc(N4CCN(C)CC4)cc3)nc2n1-c1cccc(C(C)(C)O)n1 [AZD1775] (first compound max 1 µM, partner max 1 µM) | 0.856 | -0.0681 | 0.021 | 0.0202 | 0.009 | 0.002 | 0.0301 | 0.0562 | -0.0016 | 0.0214 | 0.0263 | -0.0553
